The test system of one series is DU145 cells. Briefly: Colony formation assay for radiosensitization. It is filed as cell-based. Here is the method:
The X-Ray radiation facility provided an AGO HS MP-1 X-ray machine with a Varian ND1-321 tube used to produce X rays at a dose rate of 1 Gy/min.
Stock cultures were trypsinised and 2.5×10^4 cells were seeded into 6-well plates and incubated at 37° C. for 24-48 hours. When cells reached […] confluency, they were treated with IE-8 (0, 0.8, 1, and 1.2 μM) for 18 hours. After drug treatment, cells were harvested by trypsinisation and re-seeded. […] Plates were then incubated for 14 days at 37° C. with 5% CO2. After this incubation, plates were washed with tap water and fixed. Colonies were stained for 30 minutes at room temperature with 1% (w/v) crystal violet (Sigma-Aldrich) in 10% ethanol, and subsequently dried overnight at room temperature. Colonies consisting of at least 50 cells were counted for each treatment. The number of colonies in unirradiated wells was used to determine the plating efficiency (number of colonies/number of cells seeded). The following formula was used to calculate survival fraction: […]

The next series relates to A549 cells. Briefly: SRB growth inhibition and combination index with cisplatin, A549. It is filed as cell-based, human. Here is the method:
The affected fractions were calculated from the SRB or MTT assay absorbance values and were registered to derive the respective CI values and isobolograms. A CI value of less than 1 (one) indicates synergy.
The SRB assay was used to assess cell growth inhibition by IE-8 alone and in combination with cisplatin. […] For combination studies drug treatments were sequential with IE-8 applied first followed by cisplatin for 1 h. […] Absorbance was read at 540 nm and results were normalized to untreated controls. For analysis of GC50 values and statistical significance, non-linear regression analysis with a comparison of fits was performed with the GraphPad Prism 6.0 software.
Drug Combination studies. Sulforhodamine B (SRB) Cell Growth Inhibition Assay. The SRB assay was used to assess cell growth inhibition by 8 h alone and in combination with cisplatin. […] For combination studies drug treatments were sequential with 8 h applied first followed by cisplatin for 1 h. […] Absorbance was read at 540 nm and results were normalized to untreated controls. For analysis of GC50 values and statistical significance, non-linear regression analysis with a comparison of fits was performed with the GraphPad Prism 6.0 software.

Series [1] relates to HCT116-oxaliplatin resistant cells. As to the kind of experiment: Colony formation assay with oxaliplatin. It is filed as cell-based. As to conditions: 10 days. Here is the method: HCT116-oxaliplatin res cells were seeded at 2000 cells/well in 6-well plates and allowed to adhere overnight. The next day, oxaliplatin and IE-8 were added simultaneously. First, the specific amount of cells solution was removed from each well and afterwards the same volume of the appropriate drug dilution was added to achieve the right concentration. IE-8 was diluted in DMA. Cells were also treated with Oxaliplatin and IE-8 alone. The plates were left the incubator and the cells were allowed to grow colonies for 10 days. After 10 days the entire cell solution was removed from each well, which was subsequently washed with 500 μl of PBS. 1 ml of cold 100% methanol was added and the plates were incubated for 30 minutes at 4 C. After a second wash, the cells were stained with 1 ml of […] staining dye for 2-3 minutes, rinsed with water, allowed to dry overnight and the colonies were quantified using a gel imaging system (Fusion Fx7) and its in-built colony counter software.

Another series has as its system pStat3. Briefly: Immunohistochemistry of pStat3 in xenograft tissue sections. As to conditions: A549, A431, DU145 and HCT116-oxaliplatin resistant xenografts, single dose 30 mg/kg, 24 h. Type of series: in vivo, mice. The protocol:
Mice were treated as described in the survival experiments but were sacrificed 24 h post administration of the compound or vehicle, intraperitoneally.

The subject of a further series is nuclear Stat3. Briefly: Confocal microscopy of Stat3 localisation. It is filed as cell-based. As to conditions: DU145, 5 μM, 5 h. The protocol: For Stat3, pStat3 staining, 2.5×10^4 cells/ml were plated on 13-mm glass cover slip (VWR) in 24 well plates, allowed to adhere and processed the next day. […] Cells were blocked in PBS 5% BSA for 1 h at ambient temperature. Respective proteins were identified by incubation for 4 h with anti-Stat3 and anti-pStat3 rabbit polyclonal antibodies (1:1000, Cell signalling) or anti-phospho-Histone H2A.X mouse monoclonal (1:500; Millipore) diluted in a PBS 1% BSA buffer. Cells were incubated with a secondary fluorescent conjugated antibody Alexa Fluor 488 (1:500; Life Technologies) for 2 h at RT. […]
Cell nuclei and protein levels were visualized by confocal microscopy (objective ×40, Leica TCS SP2). […] In the case of IE-8 detection only, the blue fluorescent agent was excited with a UV-laser (364 nm) and detected using the DAPI filter. PI was excited with the 488 line of an argon-ion laser and detected at 642 nm. The fluorescence of IE-8 was detected and imaged by z-stack acquisition using the Leica SP2 microscope software. […]
Confocal microscopy. […] In the case of 8 h detection only, the blue fluorescent agent was excited with a UV-laser (364 nm) and detected using the DAPI filter. PI was excited with the 488 line of an argon-ion laser and detected at 642 nm. The fluorescence of 8 h was detected and imaged by z-stack acquisition using the Leica SP2 microscope software. […]

Another series concerns A-10 smooth muscle cells. As to the kind of experiment: Microtubule disruption by indirect immunofluorescence. It is filed as cell-based. As to conditions: 30 μM.
For series [2], the system named is HCT116-oxaliplatin resistant and A2780-cisplatin resistant cells. Briefly: 2D monolayer cytotoxicity in platinum-resistant cells. Type of series: cell-based. The settings on record: compared with HO-3867, atovaquone, curcumin and stattic. The protocol: MIT assay. Individual drug treatments and combinations were carried out as with the SRB assay. The MTT assay was carried out as previously (see Cytotoxicity studies sections) with the difference that it was completed in 96 h.

The record followed here is US11964943B2, “3,5-diarylidenyl-n-substituted-piperid-4-one-derived inhibitors of Stat3 pathway activity and uses thereof” (priority 2017, dated 2024).

“Also recorded” adds a separate entry of the source.

On to `COc1cc(/C=C2\CN(c3ccccc3)C/C(=C\c3cc(OC)c(OC)c(OC)c3)C2=O)cc(OC)c1OC` [IE-8, 3,5-Di(3,4,5-trimethoxybenzylidene)-1-phenylpiperidin-4-one], for which, in the series with DU145 cells (18 h pretreatment), the “colony formation following irradiation” value is listed as “dose-dependent decrease in colony formation”. Moreover, the Survival fraction turned out to be 1.000 with DU145 cells (IE-8 0.8 μM 18 h pretreatment, 0 Gy); 0.451 in the series on DU145 cells (IE-8 0.8 μM 18 h pretreatment, 2 Gy); 0.147 in the series with DU145 cells (IE-8 0.8 μM 18 h pretreatment, 4 Gy); 0.047 in the series with DU145 cells (IE-8 0.8 μM 18 h pretreatment, 6 Gy); 0.013 in the series with DU145 cells (IE-8 0.8 μM 18 h pretreatment, 8 Gy); 1.000 in the series on DU145 cells (IE-8 1 μM 18 h pretreatment, 0 Gy). Besides, the Survival fraction is recorded as 0.440 with DU145 cells (IE-8 1 μM 18 h pretreatment, 2 Gy); 0.134 in the series on DU145 cells (IE-8 1 μM 18 h pretreatment, 4 Gy); 0.026 with DU145 cells (IE-8 1 μM 18 h pretreatment, 6 Gy); 0.006 in the series on DU145 cells (IE-8 1 μM 18 h pretreatment, 8 Gy); 1.000 in the series with DU145 cells (IE-8 1.2 μM 18 h pretreatment, 0 Gy); 0.349 with DU145 cells (IE-8 1.2 μM 18 h pretreatment, 2 Gy). Moreover, the Survival fraction is given as 0.077 in the series with DU145 cells (IE-8 1.2 μM 18 h pretreatment, 4 Gy); 0.014 in the series with DU145 cells (IE-8 1.2 μM 18 h pretreatment, 6 Gy); 0.002 with DU145 cells (IE-8 1.2 μM 18 h pretreatment, 8 Gy). The “combination index (CI) with cisplatin” value in the series with A549 cells (10 μM IE-8 1 h then cisplatin 1 h) is reported as “below 1”; in the series with A549 cells (IE-8 18 h then cisplatin 1 h, fixed ratio 1:50), “below 1”. Besides, the values for the number of colonies result in series [1] (0.1 μM IE-8 + 1 μM oxaliplatin) and in series [1] (0.1 μM IE-8 + 2 μM oxaliplatin) were “about 60” and “Less than 25”, respectively. In addition, in the series on pStat3, the “pStat3 levels in xenograft tissue sections” value is “marked and in many instances significant downregulation; also recorded: downregulation of the pStat3 levels in vivo, was achieved”. Moreover, the “levels of nuclear Stat3” value in the series with nuclear Stat3 is given as “the levels of nuclear Stat3 were decreased”.

For the molecule “3,5-Di(3,4,5-trimethoxybenzylidene)-1-phenylpiperidin-4-one [IE-8]”, the effect on microtubules result in the series on A-10 smooth muscle cells is recorded as “did not show any effect on the microtubules”. For the same molecule, in series [2], the “cytotoxicity relative to other Stat3 inhibitors” value was “more cytotoxic than the other tested inhibitors”.
